In patent US20090181948A1, “DIAMINE DERIVATIVE” (KYOWA HAKKO KOGYO CO., LTD., priority 2005, published 2009) one finds inhibition and melting point data, which are given here for 20 compounds.

Where a name gives a salt, the structure may show the parent alone.

The target of data set [1] is T1, histamine H3 receptor (Rattus norvegicus, UniProt Q9QYN8).
T1 construct: from tissue; host or cells: rat striatum (Sprague-Dawley, male, 6 weeks), membrane homogenate
Put plainly: Histamine H3 receptor binding assay ([3H]-Nα-methylhistamine binding to rat striatum homogenate). Conditions: 1 μmol/L test compound; [3H]-Nα-methylhistamine 1 nmol/L; striata of Sprague-Dawley male rats, 25° C., 1 hour; read-out: Inhibition ratio of [3H]-Nα-methylhistamine binding. Put shortly:
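Rat striatum membranes (20 μg protein) incubated with [3H]-Nα-methylhistamine 1 nmol/L in 50 mmol/L Tris/HCl pH 7.4, 5 mmol/L EDTA, 1 hour at 25° C; bound ligand by filtration and scintillation counting. Nonspecific binding defined with 10 μmol/L thioperamide; % inhibition reported at 1 μmol/L compound.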

The target in data set [2] is T1, histamine H3 receptor. Kind of data set: Inhibitory effect on histamine release suppressive action of histamine H3 receptor agonist (Nα-methylhistamine) in rat forebrain synaptosomes. Type of data set: biochemical. As to conditions: 1 μmol/L test compound and 1 μmol/L Nα-methylhistamine, potassium 30 mmol/L stimulation, read-out: Inhibition ratio of the [3H]-histamine release suppressive action of Nα-methylhistamine. Here is the method:
To the forebrains of Sprague-Dawley male rats (6 to 8 weeks of age), a 30-fold volume of a 0.32 mol/L aqueous sucrose solution was added and the forebrains were homogenized. The resulting homogenate was centrifuged (1,000×g, 4° C., 10 min), and to the obtained supernatant, an equivalent volume of Krebs-Ringer solution [120 mmol/L sodium chloride, 0.8 mmol/L potassium chloride, 2.6 mmol/L calcium chloride, 0.67 mmol/L magnesium sulfate, 1.2 mmol/L potassium dihydrogen phosphate, 27.5 mmol/L sodium bicarbonate, 10 mmol/L glucose (pH 7.3)] was added, and the resulting mixture was centrifuged (10,000×g, 4° C., 15 min). To the obtained precipitate, a 15-fold volume of Krebs-Ringer solution was added to suspend the precipitate. Then, the concentration of protein in the resulting tissue homogenate (synaptosomes) was measured and used for a test.
To the synaptosomes (300 μg in terms of protein amount) prepared by the above-described method, a [^3H]-histidine solution [final concentration: […] (740 kBq)/mL]: 6 μl of a 37 MBq/mL (specific activity: […]) solution] was added, and the total volume was adjusted to 300 μL with Krebs-Ringer solution. Then, the resulting mixture was incubated at 37° C. for 30 minutes and centrifuged (10,000×g, 25° C., 3 min). To the resulting precipitate (synaptosomes), 300 μL of Krebs-Ringer solution was added, and the mixture was incubated at 37° C. for 5 minutes and centrifuged (10,000×g, 25° C., 3 min). This procedure was repeated 5 times, whereby washing of synaptosomes was carried out. The resulting synaptosomes were suspended in 100 μL of Krebs-Ringer solution, and the resulting suspension was used for the following procedure.
A test compound and N^α-methylhistamine were separately dissolved in Krebs-Ringer solution to give a concentration of 20 μmol/L (the resulting mixtures were referred to as a test compound solution and a N^α-methylhistamine solution, respectively). To 100 μL of the above-described suspended synaptosomes (300 μg in terms of protein amount), 140 μL of Krebs-Ringer solution was added. Then, 30 μL of the test compound solution and 30 μL of the N^α-methylhistamine solution were added thereto, and the resulting mixture was incubated at 37° C. for 2 minutes. Then, an equivalent volume of a stimulating solution [64 mmol/L sodium chloride, 56.8 mmol/L potassium chloride, 2.6 mmol/L calcium chloride, 0.67 mmol/L magnesium sulfate, 1.2 mmol/L potassium dihydrogen phosphate, 27.5 mmol/L sodium bicarbonate, 10 mmol/L glucose (pH 7.3)] (final potassium concentration: 30 mmol/L) was added, and the resulting mixture was incubated at 37° C. for 2 minutes to release [^3H]-histamine. The reaction mixture was centrifuged (10,000×g, 25° C., 3 min), and the obtained supernatant was passed through Amberlite CG-50 column (250 μL), and the non-adsorbed fractions were discarded. Then, 2 mL of 50 mmol/L [[…]]/hydrochloric acid (HCl) (pH 7.5) (Tris) was passed through the column 3 times, and 2 mL of distilled water, and 1.5 mL of a 0.2 mol/L aqueous sodium hydroxide solution were passed through the column in this order, and the eluted fractions were discarded. Then, 2 mL of a 0.2 mol/L aqueous sodium hydroxide solution was passed through the column, and the eluted fraction was recovered in a scintillation vial. Then, 8 mL of Ultimagold (Perkin Elmer) was added to the recovered eluted solution, and the radioactivity ([^3H]-histamine) was measured using a liquid scintillation counter. The inhibitory action of the test compound on the histamine release suppressive action of N^α-methylhistamine was evaluated by obtaining the inhibition ratio to the histamine release suppressive action in the presence of 1 μmol/L No-methylhistamine and 1 μmol/L of the test compound. The inhibition ratio of the [^3H]-histamine release suppressive action was calculated using the following Equation (2). […]

T1 sequence (Q9QYN8 whole entry): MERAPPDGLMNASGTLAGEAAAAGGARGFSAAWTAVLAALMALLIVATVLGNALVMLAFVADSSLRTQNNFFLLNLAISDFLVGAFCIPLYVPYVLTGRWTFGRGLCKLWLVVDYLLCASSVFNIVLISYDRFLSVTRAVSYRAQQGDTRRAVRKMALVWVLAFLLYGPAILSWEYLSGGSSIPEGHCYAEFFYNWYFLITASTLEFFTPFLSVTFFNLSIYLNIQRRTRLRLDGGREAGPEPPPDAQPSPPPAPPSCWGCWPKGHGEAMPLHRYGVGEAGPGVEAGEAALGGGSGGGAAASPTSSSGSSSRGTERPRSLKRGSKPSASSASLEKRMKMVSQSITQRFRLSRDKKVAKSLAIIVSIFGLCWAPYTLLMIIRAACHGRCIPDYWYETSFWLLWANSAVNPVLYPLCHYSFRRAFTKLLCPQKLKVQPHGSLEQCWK

Regarding `C[C@H]1CCCN1CCCN1CCN(CCN2CCC[C@@H]2C)C1=C(C#N)C#N` [Compound 56, {1-[2-((S)-2-methylpyrrolidin-1-yl)ethyl]-3-[3-((S) 2-methylpyrrolidin-1-yl)propyl]imidazolidin-2-ylidene}malononitrile], the melting point (as a rule, the temperature of the solid-liquid transition) was in the range of 70 to 72 °C. Also, the inhibition at 1 µM at histamine H3 receptor [1] was at least 80%. Also, the inhibition at 1 µM at histamine H3 receptor [2] is at least 70%.
In turn, `N#CC(C#N)=C(NCCN1CCCCC1)N1CCC(N2CCCCC2)CC1` [Compound 143, [(2-Piperidinoethylamino)(4-piperidinopiperidino)methylene]malononitrile] had a melting point of 198 to 200 °C. Besides, on histamine H3 receptor [1], the inhibition at 1 µM is at least 80%. For the same compound, the inhibition at 1 µM at histamine H3 receptor [2] is at least 70%.
For `C[C@@H]1CCCN1CCCN1C(=C(C#N)C#N)N(CCCN2CCC[C@H]2C)c2ccccc21` [Compound 205, {1,3-Bis[3-((R)-2-methylpyrrolidin-1-yl)propyl]benzimidazolidin-2-ylidene}malononitrile], the melting point is 96 to 97 °C. Besides, the inhibition at 1 µM at histamine H3 receptor [1] was at least 80%. In addition, at histamine H3 receptor [2], the inhibition at 1 µM was at least 70%.
Take `CC(C)N1CCC(N2CCN(CCCN3CCC(=O)CC3)C2=C(C#N)C#N)CC1` [Compound 233, {1-(1-Isopropylpiperidin-4-yl)-3-[3-(4-oxopiperidino)propyl]imidazolidin-2-ylidene}malononitrile]: the melting point lay in the range of 103 to 105 °C. Further, the inhibition at 1 µM at histamine H3 receptor [1] was at least 80%. For the same compound, at histamine H3 receptor [2], the inhibition at 1 µM is at least 70%.
The like results for `C[C@H]1CCCN1CCCN1CCN(CCCN2CCC[C@@H]2C)C1=C(C#N)C#N` [Compound 115, {1,3-Bis[3-((S)-2-methylpyrrolidin-1-yl)propyl]imidazolidin-2-ylidene}malononitrile] were, in that order, 79 to 80 °C, at least 80% and at least 70%.
`CC1CCCN1CCCN1CCN(CCCN2CCC[C@@H]2CO)C1=C(C#N)C#N` (stereo partly drawn) [Compound 119, {1-[3-((R)-2-hydroxymethylpyrrolidin-1-yl)propyl]-3-[3-(2-methylpyrrolidin-1-yl)propyl]imidazolidin-2-ylidene}malononitrile] gave a melting point of 57 to 59 °C. Further, the inhibition at 1 µM at histamine H3 receptor [1] is at least 80%. Further, the inhibition at 1 µM on histamine H3 receptor [2] was at least 70%.
The like results for `CC1CCCN1CCCN1CCN(CCCN2CCCC2C)C1=CS(=O)(=O)CC#N` (centres unmarked) [Compound 137, {1,3-Bis[3-(2-methylpyrrolidin-1-yl)propyl]imidazolidin-2-ylidene}methanesulfonylacetonitrile] were, in that order, 106 to 110 °C, at least 80% and at least 70%.
On to `N#CC(C#N)=C1N(CCCN2CCOCC2)CCN1C1CCN(C2CC2)CC1` [Compound 235, [1-(1-Cyclopropylpiperidin-4-yl)-3-(3-morpholinopropyl)imidazolidin-2-ylidene]malononitrile], for which the melting point lay within 104 to 106 °C. Also, the inhibition at 1 µM on histamine H3 receptor [1] is at least 80%. Further, the inhibition at 1 µM at histamine H3 receptor [2] was at least 70%.
The corresponding values for `C[C@@H]1CCCN1CCN1CCN(CCN2CCC[C@H]2C)C1=C(C#N)C#N` [Compound 189, {1,3-Bis[2-((R)-2-methylpyrrolidin-1-yl)ethyl]imidazolidin-2-ylidene}malononitrile] are 139 to 141 °C, at least 80% and at least 70%.
The like results for `CN(CCCN1CCCCC1)C(=C(C#N)C#N)N1CCC(N2CCCCC2)CC1` [Compound 161, {[N-methyl-N-(3-piperidinopropyl)amino](4-piperidinopiperidino)methylene}malononitrile] were, in that order, 104 to 105 °C, at least 80% and at least 70%.
As to `C[C@H]1CCCN1CCCN1CCN(CCCN2CCC[C@@H]2C)C1=C(C#N)S(=O)(=O)c1ccccc1` [Compound 247, {1,3-Bis[3-((S)-2-methylpyrrolidin-1-yl)propyl]imidazolidin-2-ylidene}benzenesulfonylacetonitrile monohydrochloride], the inhibition at 1 µM at histamine H3 receptor [1] is at least 80%; on histamine H3 receptor [2], at least 70%.
The like results for `N#CC(C#N)=C1N(CCCN2CCCCC2)CCN1CCN1CCCCC1` [Compound 10, [1-(2-Piperidinoethyl)-3-(3-piperidinopropyl)imidazolidin-2-ylidene]malononitrile] were, in that order, at least 80% and at least 70%.
The like results for `N#CC(C#N)=C1N(CCCN2CCCCC2)CCN1CCN1CCCCCC1` [Compound 47, {1-[2-(Azepan-1-yl)ethyl]-3-(3-piperidinopropyl)imidazolidin-2-ylidene}malononitrile] were, in that order, at least 80% and at least 70%.
As for `CC1CCCN1CCCN1CCN(CCCN2CCCCC2)C1=C(C#N)C#N` (centres unmarked) [Compound 103, {1-[3-(2-Methylpyrrolidin-1-yl)propyl]-3-(3-piperidinopropyl)imidazolidin-2-ylidene}malononitrile], the inhibition at 1 µM on histamine H3 receptor [1] is at least 80%; on histamine H3 receptor [2] it was at least 70%.
On to `N#CC(C#N)=C1N(CCCN2CCCCC2)CCN1CCCN1CCCCC1` [Compound 64, [1,3-Bis(3-piperidinopropyl)imidazolidin-2-ylidene]malononitrile], for which the inhibition at 1 µM on histamine H3 receptor [1] was at least 80%; at histamine H3 receptor [2] it was at least 70%.
The like results for `CC1CCCN1CC1CCN(C(=C(C#N)C#N)N(C)CCN2CCCCC2)CC1` (centres unmarked) [Compound 149, {[N-methyl-N-(2-piperidinoethyl)amino][4-(2-methylpyrrolidin-1-ylmethyl)piperidino]methylene}malononitrile] were, in that order, at least 80% and at least 70%.
The corresponding values for `CC1CCCN1CCN1CCN(CCN2CCCC2C)C1=C(C#N)C#N` (centres unmarked) [Compound 6, {1,3-Bis[2-(2-methylpyrrolidin-1-yl)ethyl]imidazolidin-2-ylidene}malononitrile] are at least 80% and at least 70%.
The like results for `N#CC(C#N)=C1N(CCCCN2CCCCC2)CCN1CCN1CCCCC1` [Compound 7, [1-(4-Piperidinobutyl)-3-(2-piperidinoethyl)imidazolidin-2-ylidene]malononitrile] were, in that order, at least 80% and at least 70%.
For `CC1CCCN1CCCN1CCN(CCCN2CCCCCC2)C1=C(C#N)C#N` (centres unmarked) [Compound 71, {1-[3-(Azepan-1-yl)propyl]-3-[3-(2-methylpyrrolidin-1-yl)propyl]imidazolidin-2-ylidene}malononitrile], the inhibition at 1 µM at histamine H3 receptor [1] is at least 80%; on histamine H3 receptor [2] it was at least 70%.
The like results for `CC(C)N1CCC(N2CCN(CCCN3CCOCC3)C2=C(C#N)C#N)CC1` [Compound 216, [1-(1-Isopropylpiperidin-4-yl)-3-(3-morpholinopropyl)imidazolidin-2-ylidene]malononitrile] were, in that order, at least 80% and at least 70%.
